Results reported in PMC5820653, “Detection of a Peptide Biomarker by Engineered Yeast Receptors” (ACS Synthetic Biology, 2018).
pEC50: −log10 of the molar value. Ends that are not written are not given here.

What was measured:
[1] = biological target: T1, Ste2p mutant receptor Cys1H4 (M54I) (Saccharomyces cerevisiae, UniProt D6VTK4, M54I); assay: cell-based; type: cell-based
T1 construct: expressed in transfected cells; host or cells: S. cerevisiae yJB013 (ste2-deleted reporter strain), p416GPD plasmid
T1 sequence (D6VTK4 whole entry M54I): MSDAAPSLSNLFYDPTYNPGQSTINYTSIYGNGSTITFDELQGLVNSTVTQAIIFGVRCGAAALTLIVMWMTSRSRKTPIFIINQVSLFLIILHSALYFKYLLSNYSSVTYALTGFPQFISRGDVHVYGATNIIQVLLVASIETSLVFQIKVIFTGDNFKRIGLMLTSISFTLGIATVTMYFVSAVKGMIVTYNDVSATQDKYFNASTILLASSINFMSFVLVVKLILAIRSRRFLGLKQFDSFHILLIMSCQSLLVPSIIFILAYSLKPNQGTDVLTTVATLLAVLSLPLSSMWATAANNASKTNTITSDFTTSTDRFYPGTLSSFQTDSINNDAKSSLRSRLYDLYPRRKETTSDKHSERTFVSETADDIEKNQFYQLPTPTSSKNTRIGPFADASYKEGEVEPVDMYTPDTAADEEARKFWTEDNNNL
Protocol: (§1) Yeast were grown overnight at 30 °C and 225 rpm in 250 mL Erlenmeyer flasks and then diluted to an OD600 = 0.1 in the appropriate medium, typically CSM-Ura or SDCAA-Ura, or commercially sourced pooled human urine. Immediately after dilution, the peptide ligand was added. The culture was incubated for 2.5 h at 30 °C with 225 rpm shaking. Cells were centrifuged at 2000g for 5 min and supernatant was removed. Cells were resuspended in 1x PBS in preparation for flow cytometry.
(§2) Analytical flow cytometry was performed with the BD LSR II (BD Biosciences, San Jose, USA); yEGFP was read on the Alexa-Flour 488 channel, and mKate was read on the PE-Texas Red channel. Receptor output was measured by dividing the mean GFP fluorescence by the mean RFP fluorescence for a population. EC50 values were calculated by fitting the receptor output to a four-parameter logistic curve, and determining which ligand concentration produced an output equivalent to half of the receptor’s maximum output.
(§3) The dose response curves were modeled to fit the following four-parameter logistic curve: [drawing 2] where a is the minimum value, b is the maximum value, c is the EC50, and d is the hill coefficient. The fluorescent receptor output, y, to a given concentration x of ligand, was determined by the following equation: [drawing 3] where GFP is downstream of the receptor pathway and mKate is constitutively expressed (see Strain and Plasmid Construction, Methods Section).
(§4) Data were fit to the Michaelis–Menten equation: [drawing 4] where the fluorescent receptor output, y, to a given concentration x of ligand, was determined by the following equation: [drawing 5] where GFP is downstream of the receptor pathway and mKate is constitutively expressed (see Strain and Plasmid Construction, Methods Section).

[2] = biological target: T2, Ste2p mutant receptor Cys1H5 (M54I, C59S) (Saccharomyces cerevisiae, UniProt D6VTK4, C59S/M54I); assay: cell-based; type: cell-based
T2 construct: expressed in transfected cells; host or cells: S. cerevisiae yJB013 (ste2-deleted reporter strain), p416GPD plasmid
T2 sequence (D6VTK4 whole entry M54I/C59S): as the sequence (D6VTK4 whole entry M54I) above, with C59S counted along it
Protocol: as §1, §2, §3, §4

Ste2p (wild type) = biological target: T3, Ste2p (wild type) (Saccharomyces cerevisiae, UniProt D6VTK4); assay: Yeast GFP/RFP reporter response of native receptor Ste2p to peptide ligand (flow cytometry); type: cell-based
T3 construct: expressed in transfected cells; host or cells: S. cerevisiae YJB015 (MPY578t5 ste2::LEU2, fus1::yeGFP, TRP1::mKate) carrying plasmid pJB036
T3 sequence (D6VTK4 1-431): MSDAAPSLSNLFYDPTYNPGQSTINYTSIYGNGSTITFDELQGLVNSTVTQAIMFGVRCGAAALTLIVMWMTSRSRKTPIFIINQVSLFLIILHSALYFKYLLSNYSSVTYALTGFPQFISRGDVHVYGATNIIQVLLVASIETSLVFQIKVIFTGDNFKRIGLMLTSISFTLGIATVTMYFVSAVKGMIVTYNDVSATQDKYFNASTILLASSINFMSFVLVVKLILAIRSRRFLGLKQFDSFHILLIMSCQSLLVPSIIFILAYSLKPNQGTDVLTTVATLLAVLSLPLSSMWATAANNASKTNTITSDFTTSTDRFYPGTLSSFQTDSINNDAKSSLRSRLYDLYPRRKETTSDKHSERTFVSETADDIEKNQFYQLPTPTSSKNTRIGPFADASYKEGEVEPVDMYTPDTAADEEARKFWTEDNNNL
Protocol: as §1
as §2, with “output. […]” for “output.”
as §4

[3] = biological target: T4, Ste2p mutant receptor Cys5R2 (Saccharomyces cerevisiae, UniProt D6VTK4, F55L/K225T/M218T/M54I/N158Y/R74K/Y26F); assay: cell-based
T4 construct: expressed in transfected cells; host or cells: S. cerevisiae yJB013 (ste2-deleted reporter strain), p416GPD plasmid
T4 sequence (D6VTK4 1-319 Y26F/M54I/F55L/R74K/N158Y/M218T/K225T): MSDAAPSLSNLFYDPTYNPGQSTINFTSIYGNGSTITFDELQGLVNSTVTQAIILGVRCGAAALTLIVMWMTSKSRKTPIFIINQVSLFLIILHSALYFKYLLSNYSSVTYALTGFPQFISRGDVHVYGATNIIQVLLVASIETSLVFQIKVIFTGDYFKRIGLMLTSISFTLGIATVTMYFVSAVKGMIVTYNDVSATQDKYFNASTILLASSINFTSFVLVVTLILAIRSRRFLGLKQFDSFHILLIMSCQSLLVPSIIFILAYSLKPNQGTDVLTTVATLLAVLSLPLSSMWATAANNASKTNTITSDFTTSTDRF
Protocol: as §1, §2, §3, §4

[4] = biological target: T5, Ste2p mutant receptor Cys2K3 (Saccharomyces cerevisiae, UniProt D6VTK4, K225T/M218T/M54I/N158Y/S356T); assay: cell-based
T5 construct: expressed in transfected cells; host or cells: S. cerevisiae yJB013 (ste2-deleted reporter strain), p416GPD plasmid
T5 sequence (D6VTK4 whole entry M54I/N158Y/M218T/K225T/S356T): as the sequence (D6VTK4 whole entry M54I) above, with N158Y, M218T, K225T, S356T counted along it
Protocol: as §1, §2, §3, §4

[5] = biological target: T6, Ste2p mutant receptor Cys2K2 (Saccharomyces cerevisiae, UniProt D6VTK4, M218K/M54I/Q272Y); assay: cell-based
T6 construct: expressed in transfected cells; host or cells: S. cerevisiae yJB013 (ste2-deleted reporter strain), p416GPD plasmid
T6 sequence (D6VTK4 whole entry M54I/M218K/Q272Y): as the sequence (D6VTK4 whole entry M54I) above, with M218K, Q272Y counted along it
Protocol: as §1, §2, §3, §4

[6] = biological target: T7, Ste2p mutant receptor Cys4L3 (Saccharomyces cerevisiae, UniProt D6VTK4, K225T/M218T/M54I/N158F/R74K/T167R/Y26F); assay: cell-based
T7 construct: expressed in transfected cells; host or cells: S. cerevisiae yJB013 (ste2-deleted reporter strain), p416GPD plasmid
T7 sequence (D6VTK4 1-319 Y26F/M54I/R74K/N158F/T167R/M218T/K225T): as the sequence (D6VTK4 1-319 Y26F/M54I/F55L/R74K/N158Y/M218T/K225T) above, with L55F, Y158F, T167R counted along it
Protocol: as §1, §2, §3, §4

[7] = biological target: T8, Ste2p mutant receptor Cys5R7 (Saccharomyces cerevisiae, UniProt D6VTK4, D3N/K225T/L228F/M218T/M54I/N158Y); assay: cell-based
T8 construct: expressed in transfected cells; host or cells: S. cerevisiae yJB013 (ste2-deleted reporter strain), p416GPD plasmid
T8 sequence (D6VTK4 other isoform, or with tags, fused parts or gaps D3N/M54I/N158Y/M218T/K225T/L228F): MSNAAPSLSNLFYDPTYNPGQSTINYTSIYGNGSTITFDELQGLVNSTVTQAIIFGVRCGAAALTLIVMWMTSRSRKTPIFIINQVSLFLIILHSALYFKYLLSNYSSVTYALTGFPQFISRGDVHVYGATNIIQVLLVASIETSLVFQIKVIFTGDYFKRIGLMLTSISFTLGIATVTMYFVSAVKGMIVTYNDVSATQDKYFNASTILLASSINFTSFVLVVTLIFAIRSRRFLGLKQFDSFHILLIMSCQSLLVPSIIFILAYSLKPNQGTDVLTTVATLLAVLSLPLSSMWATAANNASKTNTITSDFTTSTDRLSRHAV
Protocol: as §1, §2, §3, §4

[8] = biological target: T9, Ste2p mutant receptor Cys5R9 (Saccharomyces cerevisiae, UniProt D6VTK4, K225T/L228F/M218T/M54I/N158F/R74K/S121R/T167R/Y26F); assay: cell-based
T9 construct: expressed in transfected cells; host or cells: S. cerevisiae yJB013 (ste2-deleted reporter strain), p416GPD plasmid
T9 sequence (D6VTK4 1-319 Y26F/M54I/R74K/S121R/N158F/T167R/M218T/K225T/L228F): as the sequence (D6VTK4 1-319 Y26F/M54I/F55L/R74K/N158Y/M218T/K225T) above, with L55F, S121R, Y158F, T167R, L228F counted along it
Protocol: as §1, §2, §3, §4

[9] = biological target: T8, Ste2p mutant receptor Cys5R7; assay: Receptor Cys5R7 response in trypsinized pooled human urine; type: cell-based; details: 500 μM ligand; pooled human urine digested with trypsin (50% Tryp-LE, 37 °C overnight, boiled); n = 3
Protocol: as §1, §2
(§5) When trypsinized urine was used as the sample matrix, urine was mixed with Tryp-LE Express (Life Technologies, Grand Island, USA) to a final concentration of 50%. Mixtures were incubated at 37 °C overnight. Trypsin was inactivated by boiling the samples at 99 °C for 10 min. Samples were stored at −80 °C until assayed.

[10] = biological target: T7, Ste2p mutant receptor Cys4L3; assay: Receptor Cys4L3 response in trypsinized pooled human urine; type: cell-based; details: 500 μM ligand; pooled human urine digested with trypsin (50% Tryp-LE, 37 °C overnight, boiled); n = 3
Protocol: as §1, §2, §5

[11] = biological target: T9, Ste2p mutant receptor Cys5R9; assay: Receptor Cys5R9 response in trypsinized pooled human urine; type: cell-based; details: 500 μM ligand; pooled human urine digested with trypsin (50% Tryp-LE, 37 °C overnight, boiled); n = 3
Protocol: as §1, §2, §5

[12] = biological target: T4, Ste2p mutant receptor Cys5R2; assay: Receptor Cys5R2 response in trypsinized pooled human urine; type: cell-based; details: 500 μM ligand; pooled human urine digested with trypsin (50% Tryp-LE, 37 °C overnight, boiled); n = 3
Protocol: as §1, §2, §5

[13] = tested on: Round 3 Ste2p mutant receptors; assay: Counter-sorting for specificity: round 3 Ste2p mutants evolved for Variant 56; type: cell-based, Saccharomyces cerevisiae; details: library sorted with 100 nM Variant 56, counter-sorted against 100 nM α-factor; Supplementary Figure 1
Protocol: Specificity can be evolved
Supplementary Figure 1- Receptors can be counter-sorted against alpha-factor to increase specificity towards the target ligand- Variant […]
Variant 56 (sequence: […]), which contains a single-amino acid substitution compared to α-factor. In round 1, error prone PCR was performed on Ste2p to create a library of mutant receptors that were subjected to sorting with 100 nM Variant 56. The best mutant isolated from this sort was re-mutagenized to create a new library. The new library was sorted in round 2 with 100 nM Variant 56, and did show an improvement in detecting Variant 56 (panel a). In round 3, the sorted library from round 2 was screened […]
(also on this page, place not known: 0 1 2 3 4 Ste2p 1 2 Fold Increase Over Inac ve Receptor (GFP/RFP) Var. 56 0 1 2 3 4 Ste2p 1 2 3* Fold Increase Over Inac ve Receptor (GFP/RFP) α-factor 0.0 0.2 0.4 0.6 0.8 1.0 Ste2p 1 2 3* Rela ve Ac va on (Var. 56/α-factor) Rounds of Mutagenesis & Screening (a) (c) (b)) […]
(1 picture or pasted object on this page, not shown here)

| Compound | pEC50 [1] | pEC50 [2] | pEC50 [3] | pEC50 [4] | pEC50 [5] | pEC50 [6] | pEC50 [7] | also measured |
| --- | --- | --- | --- | --- | --- | --- | --- | --- |
| CSCC[C@H](NC(=O)[C@@H]1CCCN1C(=O)[C@H](CCC(N)=O)NC(=O)CNC(=O)[C@@H]1CCCN1C(=O)[C@H](CCCCN)NC(=O)[C@H](CC(C)C)NC(=O)[C@H](CCC(N)=O)NC(=O)[C@H](CC(C)C)NC(=O)[C@H](Cc1c[nH]c2ccccc12)NC(=O)[C@H](Cc1c[nH]cn1)NC(=O)[C@@H](N)Cc1c[nH]c2ccccc12)C(=O)N[C@@H](Cc1ccc(O)cc1)C(N)=O [α-factor amidated, reference compound] | 7.30 | 7.23 | 8.04 | 7.23 | 7.15 | 8.17 | 8.20 | pEC50 (Ste2p (wild type); log10 of EC50 in M ± error, 4-parameter logistic fit of GFP/RFP output, 2.5 h, 30 °C, flow cytometry, Supplementary Table 1): 6.64 |
| ALALKPGEPMY [Cys2] | – | – | – | 6.93 | 6.50 | – | – | – |
| ALDFAVGEPMK-NH2 [Cys5 amidated] | 3.80 | 3.63 | 5.31 | 5.21 | 4.09 | 5.46 | 5.57 | pEC50 [8]: 5.46 |
| ALDFAVGEYNK-NH2 [Cys7 amidated, C-terminally amidated cystatin C tryptic peptide Cys7] | – | – | – | – | – | – | – | Ligand concentration at which the receptor responds (sensitivity) ([1]; Supplementary Figure 3C legend): 1 mM; Ligand concentration at which the receptor responds (sensitivity) ([2]; Supplementary Figure 3C legend): 1 mM; Detection of ligand in pooled human urine [9]: able to detect; Ligand concentration at which the receptor responds (sensitivity) (Ste2p (wild type); as stated in text / figure legend): 1 mM; Detection of ligand in pooled human urine [10]: able to detect; Ligand concentration at which the receptor responds (sensitivity) [8]: 500 µM; Ligand concentration at which the receptor responds (sensitivity) [3]: 100 µM; Ligand concentration at which the receptor responds (sensitivity) ([6]; Cys4 value with a new stock of Cys4 peptide): 100 µM; Ligand concentration at which the receptor responds (sensitivity) [7]: 50 µM; Improvement in sensitivity ([7]; receptor Cys5R7 versus Ste2p, same ligand): 20 fold; Detection of ligand in pooled human urine [11]: able to detect; Detection of ligand in pooled human urine [12]: able to detect |
| HALALKPGEPMY [Cys1] | 6.85 | 6.89 | – | – | – | – | – | – |
| WHYLQLKPGQPMY [Variant 56, α-factor variant with a single-amino acid substitution] | – | – | – | – | – | – | – | Activation of round 3 mutants (fold increase GFP/RFP; relative activation Var. 56/α-factor) [13]: preferentially activated |
